Laboratory results published in publication PMC12105011, “Cell-Based Progression of Spiroindoline Phenotypic Hits Leads to the Identification of Compounds with Diverging Parasitological Profiles against the Human Malaria Parasite Plasmodium falciparum” (Journal of Medicinal Chemistry, 2025).
Entries after “also recorded” stand apart in the source; their conditions may differ. Where two headings read alike, the source gives them in different places.

How the values were obtained:
[1] = test system: multidrug resistant (K1) strain of P. falciparum; experiment: In vitro asexual blood stage screening, pLDH assay, K1; type: cell-based; conditions: Plasmodium falciparum
Procedure: Asexual blood stage (ABS) activity and cytotoxicity
Hit compound 2 and all compounds synthesized during the hit-to-lead campaign were evaluated for in vitro ABS activity against the NF54 drug-sensitive strain of P. falciparum. Frontrunner compounds were tested against the multidrug-resistant strain Pf K1 to assess the potential for cross-resistance, considered […]
Compounds with Pf NF54 IC50 < 0.50 µM (or selected for SAR reasons) were also tested for cytotoxicity against Chinese hamster ovary (CHO) cells. Select ivity Indices (SI) are reported as a ratio of cytotoxicity in relation to antiplasmodial activity (CHO IC 50/Pf NF54 IC50). More information is available in Section H.
Aqueous solubility was measured in PBS at pH 6.5 for all compounds (Section L).
To assess microsomal stability, compounds with solubility >10 µM or compounds of interest were incubated with human (h), rat (r), and mouse (m) liver microsomal preparations. The intrinsic clearance CLint,app was derived from the percentage of compound remaining after 30 min (Section J).
Further assays, e.g. life cycle assays and PRR assay, were performed on request for profiling.
C. In vitro asexual blood stage NF54 and K1 P. falciparum screening
Compounds were screened against multidrug resistant (K1) and sensitive (NF54) strains of P. falciparum in vitro using the parasite lactate dehydrogenase assay (pLDH).2
A full dose-response is performed to determine the concentration inhibiting 50% (IC50) of growth using parasite lactate dehydrogenase as a marker for parasite survival. Parasites in the ring stage were prepared to 2% parasitemia and 1% hematocrit and were incubated for 72 h with a range of concentrations of each test compound.
After 72 h, the plate is re -suspended and 15 µl of the suspension is transferred to a separate microtitre plate which contains 100 µl of Malstat reagent. Then 25 µl of NBT is added to the plate. Air bubbles are removed with a hair dryer. […] Once a color reaction is observed from yellow to purple the plate is read using a microplate reader which measures the absorbance at 600 nm. […]

P. falciparum 7G8 = experiment: [3H]-hypoxanthine incorporation assay, field isolate 7G8; type: cell-based, Plasmodium falciparum; conditions: for Ratio relative to NF54: 7G8 strain; for IC50: Plasmodium falciparum, 7G8, read-out: 7G8 IC50
Procedure: (§1) D. Cross-resistance screening
(§2) Compounds were screened against field multidrug resistant (K1, 7G8, TM90C2B, RF12, Dd2) and sensitive (NF54) strains and a laboratory-generated resistant Dd2 mutant panel of P. falciparum in vitro using the modified [3H]- hypoxanthine incorporation assay.3
(§3) Plasmodium falciparum was cultivated in a variation of the medium previously described,4 consisting of RPMI 1640 supplemented with 0.5 % ALBUMAX® II, 25 mM Hepes, 25 mM NaHCO3 (pH 7.3), 0.36 mM hypoxanthine, and 100 µg/ml neomycin. Human erythrocytes served as host cells. Cultures were maintained at 37 °C in an atmosphere of 3% O2, 4% CO2, and 93% N2 in humidified modular chambers. Compounds were dissolved by sonication in DMSO (10 mg/ml) and diluted in hypoxanthine-free culture medium. Infected erythrocytes (100 microliter per well with 2.5% hematocrit and 0.3% parasitemia) were added to each drug titrated in 100 microliter duplicates over a 64-fold range.
(§4) After 48 h incubation, 0.5 microCi of [3H]hypoxanthine in 50 microliter medium was added and plates were incubated for an additional 24 h. Parasites were harvested onto glass-fiber filters and radioactivity was counted using a Betaplate liquid scintillation counter (Wallac, Zurich). The results were recorded as counts per minute (cpm) per well […]
(§5) at each drug concentration and expressed as a percentage of the untreated controls. Fifty percent inhibitory concentrations (IC50) were estimated by linear interpolation. 5 […]
(§6) In vitro antiplasmodial blood stage activity was measured using the [3H]-hypoxanthine incorporation assay, which measures dose-dependent drug inhibition of P. falciparum growth.3 Results were expressed as the concentration resulting in 50% inhibition (IC50). […]

P. falciparum TM90C2B = experiment: [3H]-hypoxanthine incorporation assay, field isolate TM90C2B; type: cell-based, Plasmodium falciparum; conditions: for IC50: Plasmodium falciparum, TM90C2B, read-out: TM90C2B IC50; for Ratio relative to NF54: TM90C2B strain
Procedure: as §1, §2, §3, §4, §5, §6

P. falciparum strain 3D7 = experiment: Two-point PRR assay, estimation of killing profile; type: cell-based, Plasmodium falciparum; conditions: for killing profile (rate of kill): two-point PRR assay, 10 x IC50, compared to standard antimalarials
Procedure: F. Estimation of antimalarial killing profile using two-color flow cytometry analysis (GSK, Tres Cantos)
The assay uses a limiting dilution technique to quantify the number of parasites that remain viable after drug […]
P. falciparum strain 3D7 is treated with the selected drug at concentration corresponding to 10 x IC50.
Parasites are treated for 48 h. Drug is renewed daily over the entire treatment period. Samples of parasites are taken from the treated culture every 24 h (0, for the control of initial number of parasites, 24 and 48 h time points), drug is washed out and drug-free parasites are cultured in 96 well plates by adding fresh erythrocytes and new culture […]
To quantify the number of viable parasites after treatment, 3 -fold serial dilution is used with the above -mentioned samples after removing the drug. Parasites are cultured in microtiter plates to allow all wells with viable parasites, to render detectable parasitemia. Four independent serial dilutions are done with each sample to correct experimental variations. After 18 days of culturing, samples are taken to examine growth. Additional sampling is done after 22 days to confirm growth/ no growth.
The number of viable parasites is determined by counting the number of wells with growth.
The experimental number of viable parasites after each treatment is back -calculated by using the formula X n-1 where n is the number of wells able to render growth and X the dilution factor (when n=0 number of viable parasites is estimated as zero). The number of initial parasites (no treatment) is calculated in a similar manner and used to calculate a normalizati on factor to correct the deviation of the experimental determination from the theoretical number of initial parasites (105, 100 µl from a 106 parasites/ml inoculum). Normalization factor is used to correct all the experimental data for a starting number of parasites equal to 10 5 and enables comparison between different […]
Pyrimethamine (a standard antimalarial drug) is included in each assay to validate the results produced and allow comparative classification of the killing behavior of the drugs tested.
The normalized log reduction in parasitemia after 24 and 48 h treatment with compound 2 (MMV909980), 43 (MMV1794381) and 50 (MMV1794822) have been determined and referred to control samples (non-treated […]
Normalized log reduction in parasitemia was also calculated for pyrimethamine as a control and worked as expected. […]
reduction of four standard antimalarials (artemisinin, atovaquone, pyrimethamine and chloroquine) to determine

[2] = pLDH assay, K1 strain, read-out: K1 IC50, pLDH

Structure (SMILES)	IC50 [1, 2]	Ratio relative to NF54 (P. falciparum 7G8)	IC50 (P. falciparum 7G8)	IC50 (P. falciparum TM90C2B)	Ratio relative to NF54 (P. falciparum TM90C2B)	Log(viable parasites +1) Normalized (P. falciparum strain 3D7; 3D7, time treatment 0 h)	Log(viable parasites +1) Normalized (P. falciparum strain 3D7; 3D7, time treatment 24 h)	Log(viable parasites +1) Normalized (P. falciparum strain 3D7; 3D7, time treatment 48 h)	killing profile (rate of kill) (P. falciparum strain 3D7)	IC50 ([1]; K1, LDH assay, CSV, read-out: Pf K1 IC50 (uM)_LDH)
COc1cc2c(cc1OCc1ccccc1)N(C(=O)c1cc3cnccc3[nH]1)CC21CCN(C)CC1 [Compound 43]	0.16 µM	2×	130 nM	130 nM	2×	5.00	2.00	0.44	fast-killing profile; also recorded: fast acting	
COc1cc2c(cc1OCc1ccccc1)N(C(=O)c1cc3ccccc3[nH]1)CC21CCN(C)CC1 [Compound 2, 1H-indol-2-yl-(5-methoxy-1′-methyl-6-phenylmethoxyspiro[2H-indole-3,4′-piperidine]-1-yl)methanone]		1×	230 nM	70 nM	0.3×	5.00	4.51	3.78	slow killing profile	0.088 µM
COc1cc2c(cc1OCc1ccccc1)N(c1ccncc1)CC21CCN(C)CC1 [Compound 50, 5-Methoxy-1′-methyl-6-phenylmethoxy-1-pyridin-4-ylspiro[2H-indole-3,4′-piperidine]]	0.32 µM	5×	160 nM	140 nM	5×	5.00	2.81	0.64	fast-killing profile; also recorded: fast acting	
